Test system: MV-4-11 cells
Experiment: Gene expression microarray analysis (Affymetrix PrimeView) and GSEA
Type: cell-based, human
Set-up: RFU PODN (11730768_x_at) / Fold change /veh PODN (11730768_x_at) / RFU LINC00158 (11744669_a_at) / Fold change /veh LINC00158 (11744669_a_at) / RFU DUSP10 (11751237_a_at) / Fold change /veh DUSP10 (11751237_a_at) / RFU ID3 (11757404_x_at) / Fold change /veh ID3 (11757404_x_at) / RFU PLEKHG5 (11737974_s_at) / Fold change /veh PLEKHG5 (11737974_s_at) / RFU LRRC4B (11730491_at) / Fold change /veh LRRC4B (11730491_at) / RFU GIMAP4 (11747438_a_at) / Fold change /veh GIMAP4 (11747438_a_at) / RFU KRT8 (11758183_x_at) / Fold change /veh KRT8 (11758183_x_at) / RFU CNN1 (11734310_a_at) / Fold change /veh CNN1 (11734310_a_at) / RFU VPS37D (11726825_at) / Fold change /veh VPS37D (11726825_at) / RFU C10orf10 (11716522_x_at) / Fold change /veh C10orf10 (11716522_x_at) / RFU KIR2DL2 /// KIR2DL4 /// KIR2DL5A /// KIR2DL5B /// KIR2DS1 /// KIR2DS2 /// KIR2DS3 /// KIR2DS4 /// KIR3DL3 /// KIR3DL3 /// KIR3DS1 (11738374_at) / Fold change /veh KIR2DL2 /// KIR2DL4 /// KIR2DL5A /// KIR2DL5B /// KIR2DS1 /// KIR2DS2 /// KIR2DS3 /// KIR2DS4 /// KIR3DL3 /// KIR3DL3 /// KIR3DS1 (11738374_at) / RFU C1QL1 (11718748_at) / Fold change /veh C1QL1 (11718748_at) / RFU TMPRSS4 (11747572_a_at) / Fold change /veh TMPRSS4 (11747572_a_at) / RFU HAMP (11756126_x_at) / Fold change /veh HAMP (11756126_x_at) / RFU RNFT2 (11725882_a_at) / Fold change /veh RNFT2 (11725882_a_at) / RFU NR4A2 (11747474_a_at) / Fold change /veh NR4A2 (11747474_a_at) / RFU ABCC12 (11746883_a_at) / Fold change /veh ABCC12 (11746883_a_at) / RFU TMEM136 (11760407_x_at) / Fold change /veh TMEM136 (11760407_x_at) / RFU CLDN22 /// WWC2 (11732394_at) / Fold change /veh CLDN22 /// WWC2 (11732394_at) / RFU HLA-DPB1 (11760878_x_at) / Fold change /veh HLA-DPB1 (11760878_x_at) / RFU SPINT1 (11716480_a_at) / Fold change /veh SPINT1 (11716480_a_at) / RFU GAP43 (11754022_s_at) / Fold change /veh GAP43 (11754022_s_at) / RFU A4GNT (11735810_at) / Fold change /veh A4GNT (11735810_at) / RFU PRB3 (11715151_x_at) / Fold change /veh PRB3 (11715151_x_at) / RFU TUBB4B (11761932_at) / Fold change /veh TUBB4B (11761932_at) / RFU CAPN14 (11732068_a_at) / Fold change /veh CAPN14 (11732068_a_at) / RFU TMCC2 (11721928_a_at) / Fold change /veh TMCC2 (11721928_a_at) / RFU IRGQ (11745062_a_at) / Fold change /veh IRGQ (11745062_a_at) / RFU FAM174B (11720279_a_at) / Fold change /veh FAM174B (11720279_a_at) / RFU TMPRSS4 (11748680_a_at) / Fold change /veh TMPRSS4 (11748680_a_at) / RFU FAM212B (11763350_a_at) / Fold change /veh FAM212B (11763350_a_at) / RFU PLEKHG5 (11743358_a_at) / Fold change /veh PLEKHG5 (11743358_a_at) / RFU ZSCAN30 (11745921_a_at) / Fold change /veh ZSCAN30 (11745921_a_at) / RFU CMKLR1 (11741424_a_at) / Fold change /veh CMKLR1 (11741424_a_at) / RFU LOC101060620 /// MAPK8IP1 (11723275_at) / Fold change /veh LOC101060620 /// MAPK8IP1 (11723275_at) / RFU SPTSSB (11747773_x_at) / Fold change /veh SPTSSB (11747773_x_at) / RFU PRSS12 (11739890_at) / Fold change /veh PRSS12 (11739890_at) / RFU BIN1 (11741810_x_at) / Fold change /veh BIN1 (11741810_x_at) / RFU WNT11 (11732464_a_at) / Fold change /veh WNT11 (11732464_a_at) / RFU C10orf10 (11716521_a_at) / Fold change /veh C10orf10 (11716521_a_at) / RFU C5orf56 (11738089_at) / Fold change /veh C5orf56 (11738089_at) / RFU CYB561 (11721691_x_at) / Fold change /veh CYB561 (11721691_x_at) / RFU ANKRD19P (11752326_a_at) / Fold change /veh ANKRD19P (11752326_a_at) / RFU OR2T12 /// OR2T33 /// OR2T8 (11738714_s_at) / Fold change /veh OR2T12 /// OR2T33 /// OR2T8 (11738714_s_at) / RFU VCAN (11748164_a_at) / Fold change /veh VCAN (11748164_a_at) / RFU JSRP1 (11732532_at) / Fold change /veh JSRP1 (11732532_at) / RFU KRTAP10-11 (11738290_x_at) / Fold change /veh KRTAP10-11 (11738290_x_at) / RFU MYO3A (11730013_a_at) / Fold change /veh MYO3A (11730013_a_at) / RFU EBF3 (11725865_a_at) / Fold change /veh EBF3 (11725865_a_at) / RFU CAMK2N1 (11719241_x_at) / Fold change /veh CAMK2N1 (11719241_x_at) / RFU C5orf56 (11738088_a_at) / Fold change /veh C5orf56 (11738088_a_at) / RFU OLFML3 (11715873_a_at) / Fold change /veh OLFML3 (11715873_a_at) / RFU LOC100653217 /// NTM (11731650_a_at) / Fold change /veh LOC100653217 /// NTM (11731650_a_at) / RFU MAPK11 (11762145_a_at) / Fold change /veh MAPK11 (11762145_a_at) / RFU FIZ1 (11724087_x_at) / Fold change /veh FIZ1 (11724087_x_at) / RFU OASL (11726364_x_at) / Fold change /veh OASL (11726364_x_at) / RFU SOX15 (11748057_x_at) / Fold change /veh SOX15 (11748057_x_at) / RFU CD79A (11719716_a_at) / Fold change /veh CD79A (11719716_a_at) / RFU HIST1H1D (11736915_at) / Fold change /veh HIST1H1D (11736915_at) / RFU CASKIN2 (11723855_a_at) / Fold change /veh CASKIN2 (11723855_a_at) / RFU LOC730098 (11760151_x_at) / Fold change /veh LOC730098 (11760151_x_at) / RFU OR4N2 (11742367_at) / Fold change /veh OR4N2 (11742367_at) / RFU PRRT2 (11749266_a_at) / Fold change /veh PRRT2 (11749266_a_at) / RFU SNX32 (11753110_a_at) / Fold change /veh SNX32 (11753110_a_at) / RFU CDHR5 (11726645_a_at) / Fold change /veh CDHR5 (11726645_a_at) / RFU RCAN1 (11760418_a_at) / Fold change /veh RCAN1 (11760418_a_at) / RFU FAM167A (11723789_a_at) / Fold change /veh FAM167A (11723789_a_at) / RFU FAM26E (11764081_at) / Fold change /veh FAM26E (11764081_at) / RFU ISYNA1 (11749810_s_at) / Fold change /veh ISYNA1 (11749810_s_at) / RFU ACY1 (11761880_at) / Fold change /veh ACY1 (11761880_at) / RFU 11764098_at / Fold change /veh 11764098_at / RFU SAMD14 (11745864_x_at) / Fold change /veh SAMD14 (11745864_x_at) / RFU NPB (11741838_a_at) / Fold change /veh NPB (11741838_a_at) / RFU TMPRSS6 (11731388_a_at) / Fold change /veh TMPRSS6 (11731388_a_at) / RFU KRTAP10-2 (11738614_at) / Fold change /veh KRTAP10-2 (11738614_at) / RFU ARHGAP8 /// PRR5-ARHGAP8 (11727945_x_at) / Fold change /veh ARHGAP8 /// PRR5-ARHGAP8 (11727945_x_at) / RFU KRTAP5-7 /// NADSYN1 (11734609_at) / Fold change /veh KRTAP5-7 /// NADSYN1 (11734609_at) / RFU RASL12 (11751679_a_at) / Fold change /veh RASL12 (11751679_a_at) / RFU CDKN2B (11736163_a_at) / Fold change /veh CDKN2B (11736163_a_at) / RFU PRF1 (11729649_at) / Fold change /veh PRF1 (11729649_at) / RFU, ZNF638 /// ZNF638-IT1 / Fold change vs veh, ZNF638 /// ZNF638-IT1 / RFU, PANK3 / Fold change vs veh, PANK3 / RFU, SH3YL1 / Fold change vs veh, SH3YL1 / RFU, ZEB2 / Fold change vs veh, ZEB2 / RFU, NRIP1 / Fold change vs veh, NRIP1 / RFU, PTTG1IP / Fold change vs veh, PTTG1IP / RFU, CAPN2 / Fold change vs veh, CAPN2 / RFU, MED14 / Fold change vs veh, MED14 / RFU, SNORA58 / Fold change vs veh, SNORA58 / RFU, C1orf63 / Fold change vs veh, C1orf63 / RFU, LRRFIP1 / Fold change vs veh, LRRFIP1 / RFU, NDUFAF7 / Fold change vs veh, NDUFAF7 / RFU, SLC12A2 / Fold change vs veh, SLC12A2 / RFU, IBTK / Fold change vs veh, IBTK / RFU, ESF1 / Fold change vs veh, ESF1 / Fold change vs veh, TMEM50B / RFU, TAOK1 / Fold change vs veh, TAOK1 / RFU, ACBD3 / Fold change vs veh, ACBD3 / RFU, TMA16 / Fold change vs veh, TMA16 / RFU, RWDD3 / Fold change vs veh, RWDD3 / RFU, BCAT1 / Fold change vs veh, BCAT1 / RFU, EDEM3 / Fold change vs veh, EDEM3 / RFU, TMEM33 / Fold change vs veh, TMEM33 / RFU, WDR75 / Fold change vs veh, WDR75 / RFU, AHCTF1 / Fold change vs veh, AHCTF1 / RFU, TFRC / Fold change vs veh, TFRC / RFU, ZDHHC17 / Fold change vs veh, ZDHHC17 / RFU, NOM1 / Fold change vs veh, NOM1 / RFU, ARL8B / Fold change vs veh, ARL8B / RFU, ZBTB11 / Fold change vs veh, ZBTB11 / RFU, TAMM41 / Fold change vs veh, TAMM41 / RFU, KIAA1704 /// LOC100996395 / Fold change vs veh, KIAA1704 /// LOC100996395 / RFU, ING1 / Fold change vs veh, ING1 / RFU, TRMT61B / Fold change vs veh, TRMT61B / RFU, FUBP3 / Fold change vs veh, FUBP3 / RFU, TP53 / Fold change vs veh, TP53 / RFU, TNKS2 / Fold change vs veh, TNKS2 / RFU, ZFP14 / Fold change vs veh, ZFP14 / RFU, ACTR2 / Fold change vs veh, ACTR2 / RFU, PPP3R1 / Fold change vs veh, PPP3R1 / RFU, PIK3R1 / Fold change vs veh, PIK3R1 / RFU, HNRNPA1 / Fold change vs veh, HNRNPA1 / RFU, RNF170 / Fold change vs veh, RNF170 / RFU, ZNF28 / Fold change vs veh, ZNF28 / RFU, RNGTT / Fold change vs veh, RNGTT / RFU, OGT / Fold change vs veh, OGT / RFU, BRD1 / Fold change vs veh, BRD1 / RFU, MARS / Fold change vs veh, MARS / RFU, ZNF655 / Fold change vs veh, ZNF655 / RFU, FAHD1 / Fold change vs veh, FAHD1 / RFU, BDP1 / Fold change vs veh, BDP1 / RFU, LRRCC1 / Fold change vs veh, LRRCC1 / RFU, ARID1A / Fold change vs veh, ARID1A / RFU, ZNF146 / Fold change vs veh, ZNF146 / RFU, ZNF330 / Fold change vs veh, ZNF330 / RFU, GPN3 / Fold change vs veh, GPN3 / RFU, C9orf123 / Fold change vs veh, C9orf123 / RFU, N4BP2L2 / Fold change vs veh, N4BP2L2 / RFU, ARFIP1 / Fold change vs veh, ARFIP1 / RFU, FAM179B / Fold change vs veh, FAM179B / RFU, BCL10 / Fold change vs veh, BCL10 / RFU, UHRF1BP1L / Fold change vs veh, UHRF1BP1L / RFU, BET1 / Fold change vs veh, BET1 / RFU, CNOT2 / Fold change vs veh, CNOT2 / RFU, ZNF268 / Fold change vs veh, ZNF268 / Fold change vs veh, ZNF507 / RFU, DGCR2 / Fold change vs veh, DGCR2 / RFU, WDSUB1 / Fold change vs veh, WDSUB1 / Fold change vs veh, HSP90B1 /// MIR3652 / RFU, ADSS / Fold change vs veh, ADSS / RFU, GK / Fold change vs veh, GK / RFU, ZNF148 / Fold change vs veh, ZNF148 / RFU, TAF9 / Fold change vs veh, TAF9 / RFU, SLC1A5 / Fold change vs veh, SLC1A5 / RFU, SLMO2 / Fold change vs veh, SLMO2 / RFU, ABCC4 / Fold change vs veh, ABCC4 / RFU, LOC101060439 /// RAP1B / Fold change vs veh, LOC101060439 /// RAP1B / RFU, RFX7 / Fold change vs veh, RFX7 / RFU, GTPBP10 / Fold change vs veh, GTPBP10 / RFU, CNEP1R1 / Fold change vs veh, CNEP1R1 / RFU, BIVM-ERCC5 /// ERCC5 / Fold change vs veh, BIVM-ERCC5 /// ERCC5 / RFU, ILF3 / Fold change vs veh, ILF3 / RFU 11762660_at / Fold change /veh 11762660_at / RFU VCAN (11757783_s_at) / Fold change /veh VCAN (11757783_s_at) / RFU DDX43 (11728927_at) / Fold change /veh DDX43 (11728927_at) / RFU KRT8 (11758188_x_at) / Fold change /veh KRT8 (11758188_x_at) / RFU NKD1 (11759106_at) / Fold change /veh NKD1 (11759106_at) / RFU SRD5A1 (11742802_a_at) / Fold change /veh SRD5A1 (11742802_a_at) / RFU TPSAB1 /// TPSB2 (11721975_s_at) / Fold change /veh TPSAB1 /// TPSB2 (11721975_s_at) / RFU GSTM3 (11746129_a_at) / Fold change /veh GSTM3 (11746129_a_at) / RFU IL23R (11737362_x_at) / Fold change /veh IL23R (11737362_x_at) / RFU TMEM51 (11727254_a_at) / Fold change /veh TMEM51 (11727254_a_at) / RFU PIWIL2 (11732686_x_at) / Fold change /veh PIWIL2 (11732686_x_at) / RFU ORM1 (11744905_x_at) / Fold change /veh ORM1 (11744905_x_at) / RFU CCDC152 (11743942_at) / Fold change /veh CCDC152 (11743942_at) / RFU ECM1 (11717891_a_at) / Fold change /veh ECM1 (11717891_a_at) / RFU IL23R (11748794_a_at) / Fold change /veh IL23R (11748794_a_at) / RFU TNFAIP8L3 (11732012_x_at) / Fold change /veh TNFAIP8L3 (11732012_x_at) / RFU MBOAT4 (11741988_at) / Fold change /veh MBOAT4 (11741988_at) / RFU 11764193_at / Fold change /veh 11764193_at / RFU TMEM53 (11763286_at) / Fold change /veh TMEM53 (11763286_at) / RFU MAGEB2 (11727129_at) / Fold change /veh MAGEB2 (11727129_at) / RFU TMEM200A (11744735_a_at) / Fold change /veh TMEM200A (11744735_a_at) / RFU CCDC152 (11751479_a_at) / Fold change /veh CCDC152 (11751479_a_at) / RFU FAM211A (11726209_a_at) / Fold change /veh FAM211A (11726209_a_at) / RFU RGS16 (11746705_a_at) / Fold change /veh RGS16 (11746705_a_at) / RFU VCAN (11755009_s_at) / Fold change /veh VCAN (11755009_s_at) / RFU RHOB (11743442_s_at) / Fold change /veh RHOB (11743442_s_at) / RFU RGS16 (11720943_a_at) / Fold change /veh RGS16 (11720943_a_at) / RFU RGS16 (11720944_at) / Fold change /veh RGS16 (11720944_at) / RFU, VPS4B / Fold change vs veh, VPS4B / RFU, CREB1 / Fold change vs veh, CREB1 / RFU, DNAJC13 / Fold change vs veh, DNAJC13 / RFU, GNAQ / Fold change vs veh, GNAQ / RFU, CDK5R1 / Fold change vs veh, CDK5R1 / RFU, ZRANB3 / Fold change vs veh, ZRANB3 / RFU, CUL4A / Fold change vs veh, CUL4A / RFU, CCNY / Fold change vs veh, CCNY / RFU, UFL1 / Fold change vs veh, UFL1 / RFU, COG3 / Fold change vs veh, COG3 / RFU, DIAPH2 / Fold change vs veh, DIAPH2 / RFU, SKA2 / Fold change vs veh, SKA2 / RFU, AFF3 / Fold change vs veh, AFF3 / RFU, LMF1 / Fold change vs veh, LMF1 / RFU, IPO11 / Fold change vs veh, IPO11 / RFU, DFFB / Fold change vs veh, DFFB / RFU, FOXP1 / Fold change vs veh, FOXP1 / RFU, CARD8 / Fold change vs veh, CARD8 / RFU, STRN3 / Fold change vs veh, STRN3 / RFU, ADK / Fold change vs veh, ADK / RFU, RASSF2 / Fold change vs veh, RASSF2 / RFU, WIPF1 / Fold change vs veh, WIPF1 / RFU, LARP1B / Fold change vs veh, LARP1B / RFU, RASA1 / Fold change vs veh, RASA1 / RFU, RB1 / Fold change vs veh, RB1 / RFU, PPFIA1 / Fold change vs veh, PPFIA1 / RFU, MAT2A / Fold change vs veh, MAT2A / RFU, CCT5 / Fold change vs veh, CCT5 / RFU, WDR92 / Fold change vs veh, WDR92 / RFU, CUX1 / Fold change vs veh, CUX1 / RFU, TTC7A / Fold change vs veh, TTC7A / RFU, TMEM135 / Fold change vs veh, TMEM135 / RFU, DEPTOR / Fold change vs veh, DEPTOR / RFU, CPM / Fold change vs veh, CPM / RFU, DNAJB6 / Fold change vs veh, DNAJB6 / RFU, CACNA2D3 / Fold change vs veh, CACNA2D3 / RFU, DTX4 / Fold change vs veh, DTX4 / RFU, TFCP2 / Fold change vs veh, TFCP2 / RFU, GMCL1 /// GMCL1P1 / Fold change vs veh, GMCL1 /// GMCL1P1 / RFU, AEBP2 / Fold change vs veh, AEBP2 / RFU, SNHG1 /// SNORD22 /// SNORD25 /// SNORD26 /// SNORD27 /// SNORD28 /// SNORD29 /// SNORD31 / Fold change vs veh, SNHG1 /// SNORD22 /// SNORD25 /// SNORD26 /// SNORD27 /// SNORD28 /// SNORD29 /// SNORD31 / Fold change (Aza/veh), C12orf56 (ProbeSet 11735607_a_at) / Fold change (ACY-1035/veh), C12orf56 (ProbeSet 11735607_a_at) / Fold change (Aza/veh), FGFR1OP (ProbeSet 11751329_s_at) / Fold change (ACY-1035/veh), FGFR1OP (ProbeSet 11751329_s_at) / Fold change (Aza/veh), VPS36 (ProbeSet 11739960_a_at) / Fold change (ACY-1035/veh), VPS36 (ProbeSet 11739960_a_at) / RFU SYPL1 (11715823_x_at) / Fold change /veh SYPL1 (11715823_x_at) / RFU IGFBP7 (11715501_s_at) / Fold change /veh IGFBP7 (11715501_s_at) / RFU REEP3 (11722064_at) / Fold change /veh REEP3 (11722064_at) / RFU IGLL1 (11728026_x_at) / Fold change /veh IGLL1 (11728026_x_at): dose or concentration left out as unconfirmed
Details: MV-4-11 cells, 48 hours

Nc1ncn([C@@H]2O[C@H](CO)[C@@H](O)[C@H]2O)c(=O)n1 [azacitidine]
Fold change /veh TMEM51 (11727254_a_at): 1.21

Reference: article PMC5218480 (PLoS ONE, 2017)
